Molecules are shown by their SMILES. Starred links: 1 amine or outer side, 2 acyl side, 3 side chain; linkers in the order of their positions; H or OH if unused. Positions of bridges follow the written chain, without caps; N, C: chain ends. Non-standard residues stand in square brackets, D forms with d. Residues, ends and D or L forms follow the SMILES beside them. *: point of attachment. hTyr(3S-OH,4S-OH,3'-OSO3H) = N[C@H](C(=O)O)[C@H](O)[C@@H](O)c1ccc(O)c(OS(=O)(=O)O)c1; Orn(4R-OH,5R-OH) = O=C([C@H](C[C@@H](O)[C@@H](O)N[*:3])N[*:1])[*:2]; Pro(3S-OH,4S-Me) = C[C@H]1CN[C@H](C(=O)O)[C@H]1O; X1 = CCCCCOc1ccc(-c2cc(-c3ccc(C(=O)*)cc3)no2)cc1; Gln(3R-OH) = NC(=O)C[C@@H](O)[C@H](N)C(=O)O; Hyp = O=C(O)[C@@H]1C[C@@H](O)CN1

This data set in a line: Ratio of dry weight to wet weight (Dry/Wet) of filtered solids. The class given is physicochemical. As to conditions: wet solids weighed after filtration, before drying. The source says: As used herein, the term “Dry/Wet” and “ratio of dry weight to wet weight” can be used interchangeably, both of which refer to the ratio of the weight of a compound without solvent(s) to the weight of the compound with solvent(s). In the present invention, wet weight of crystals is obtained by filtering the crystallized solids until no noticeable droplet outflows and weighing the solids.
Take `CCCCCOc1ccc(-c2cc(-c3ccc(C(=O)N[C@H]4C[C@@H](O)[C@@H](O)NC(=O)[C@@H]5[C@@H](O)[C@@H](C)CN5C(=O)[C@H]([C@H](O)CC(N)=O)NC(=O)[C@H]([C@H](O)[C@@H](O)c5ccc(O)c(OS(=O)(=O)[O-])c5)NC(=O)[C@@H]5C[C@@H](O)CN5C(=O)[C@H]([C@@H](C)O)NC4=O)cc3)no2)cc1.[Na+]` [Comparative Example 4] (X1-[Orn(4R-OH,5R-OH)]T[Hyp][hTyr(3S-OH,4S-OH,3'-OSO3H)][Gln(3R-OH)][Pro(3S-OH,4S-Me)]; lactam 1-C): the “ratio of dry weight to wet weight (Dry/Wet)” value (shortened to “ratio … (Dry/Wet)”) came to 0.19.
To `CCCCCOc1ccc(-c2cc(-c3ccc(C(=O)N[C@H]4C[C@@H](O)[C@@H](O)NC(=O)[C@@H]5[C@@H](O)[C@@H](C)CN5C(=O)[C@H]([C@H](O)CC(N)=O)NC(=O)[C@H]([C@H](O)[C@@H](O)c5ccc(O)c(OS(=O)(=O)[O-])c5)NC(=O)[C@@H]5C[C@@H](O)CN5C(=O)[C@H]([C@@H](C)O)NC4=O)cc3)no2)cc1.[Na+]` [Comparative Example 5] (X1-[Orn(4R-OH,5R-OH)]T[Hyp][hTyr(3S-OH,4S-OH,3'-OSO3H)][Gln(3R-OH)][Pro(3S-OH,4S-Me)]; lactam 1-C) belongs 0.18; to `CCCCCOc1ccc(-c2cc(-c3ccc(C(=O)N[C@H]4C[C@@H](O)[C@@H](O)NC(=O)[C@@H]5[C@@H](O)[C@@H](C)CN5C(=O)[C@H]([C@H](O)CC(N)=O)NC(=O)[C@H]([C@H](O)[C@@H](O)c5ccc(O)c(OS(=O)(=O)[O-])c5)NC(=O)[C@@H]5C[C@@H](O)CN5C(=O)[C@H]([C@@H](C)O)NC4=O)cc3)no2)cc1.[Na+]` [Comparative Example 6] (X1-[Orn(4R-OH,5R-OH)]T[Hyp][hTyr(3S-OH,4S-OH,3'-OSO3H)][Gln(3R-OH)][Pro(3S-OH,4S-Me)]; lactam 1-C), 0.21.
`CCCCCOc1ccc(-c2cc(-c3ccc(C(=O)N[C@H]4C[C@@H](O)[C@@H](O)NC(=O)[C@@H]5[C@@H](O)[C@@H](C)CN5C(=O)[C@H]([C@H](O)CC(N)=O)NC(=O)[C@H]([C@H](O)[C@@H](O)c5ccc(O)c(OS(=O)(=O)[O-])c5)NC(=O)[C@@H]5C[C@@H](O)CN5C(=O)[C@H]([C@@H](C)O)NC4=O)cc3)no2)cc1.[Na+]` [Comparative Example 7] (X1-[Orn(4R-OH,5R-OH)]T[Hyp][hTyr(3S-OH,4S-OH,3'-OSO3H)][Gln(3R-OH)][Pro(3S-OH,4S-Me)]; lactam 1-C): the “ratio … (Dry/Wet)” value was determined as 0.2.
Next, `CCCCCOc1ccc(-c2cc(-c3ccc(C(=O)N[C@H]4C[C@@H](O)[C@@H](O)NC(=O)[C@@H]5[C@@H](O)[C@@H](C)CN5C(=O)[C@H]([C@H](O)CC(N)=O)NC(=O)[C@H]([C@H](O)[C@@H](O)c5ccc(O)c(OS(=O)(=O)[O-])c5)NC(=O)[C@@H]5C[C@@H](O)CN5C(=O)[C@H]([C@@H](C)O)NC4=O)cc3)no2)cc1.[Na+]` [Comparative Example 8] (X1-[Orn(4R-OH,5R-OH)]T[Hyp][hTyr(3S-OH,4S-OH,3'-OSO3H)][Gln(3R-OH)][Pro(3S-OH,4S-Me)]; lactam 1-C): 0.15.
To `CCCCCOc1ccc(-c2cc(-c3ccc(C(=O)N[C@H]4C[C@@H](O)[C@@H](O)NC(=O)[C@@H]5[C@@H](O)[C@@H](C)CN5C(=O)[C@H]([C@H](O)CC(N)=O)NC(=O)[C@H]([C@H](O)[C@@H](O)c5ccc(O)c(OS(=O)(=O)[O-])c5)NC(=O)[C@@H]5C[C@@H](O)CN5C(=O)[C@H]([C@@H](C)O)NC4=O)cc3)no2)cc1.[Na+]` [Comparative Example 9] (X1-[Orn(4R-OH,5R-OH)]T[Hyp][hTyr(3S-OH,4S-OH,3'-OSO3H)][Gln(3R-OH)][Pro(3S-OH,4S-Me)]; lactam 1-C) belongs 0.09.
To `CCCCCOc1ccc(-c2cc(-c3ccc(C(=O)N[C@H]4C[C@@H](O)[C@@H](O)NC(=O)[C@@H]5[C@@H](O)[C@@H](C)CN5C(=O)[C@H]([C@H](O)CC(N)=O)NC(=O)[C@H]([C@H](O)[C@@H](O)c5ccc(O)c(OS(=O)(=O)[O-])c5)NC(=O)[C@@H]5C[C@@H](O)CN5C(=O)[C@H]([C@@H](C)O)NC4=O)cc3)no2)cc1.[Na+]` [Comparative Example 10] (X1-[Orn(4R-OH,5R-OH)]T[Hyp][hTyr(3S-OH,4S-OH,3'-OSO3H)][Gln(3R-OH)][Pro(3S-OH,4S-Me)]; lactam 1-C) belongs 0.23; to `CCCCCOc1ccc(-c2cc(-c3ccc(C(=O)N[C@H]4C[C@@H](O)[C@@H](O)NC(=O)[C@@H]5[C@@H](O)[C@@H](C)CN5C(=O)[C@H]([C@H](O)CC(N)=O)NC(=O)[C@H]([C@H](O)[C@@H](O)c5ccc(O)c(OS(=O)(=O)[O-])c5)NC(=O)[C@@H]5C[C@@H](O)CN5C(=O)[C@H]([C@@H](C)O)NC4=O)cc3)no2)cc1.[Na+]` [Comparative Example 11] (X1-[Orn(4R-OH,5R-OH)]T[Hyp][hTyr(3S-OH,4S-OH,3'-OSO3H)][Gln(3R-OH)][Pro(3S-OH,4S-Me)]; lactam 1-C), 0.11.
`CCCCCOc1ccc(-c2cc(-c3ccc(C(=O)N[C@H]4C[C@@H](O)[C@@H](O)NC(=O)[C@@H]5[C@@H](O)[C@@H](C)CN5C(=O)[C@H]([C@H](O)CC(N)=O)NC(=O)[C@H]([C@H](O)[C@@H](O)c5ccc(O)c(OS(=O)(=O)[O-])c5)NC(=O)[C@@H]5C[C@@H](O)CN5C(=O)[C@H]([C@@H](C)O)NC4=O)cc3)no2)cc1.[Na+]` [Comparative Example 12] (X1-[Orn(4R-OH,5R-OH)]T[Hyp][hTyr(3S-OH,4S-OH,3'-OSO3H)][Gln(3R-OH)][Pro(3S-OH,4S-Me)]; lactam 1-C): the “ratio … (Dry/Wet)” value is 0.18.
Next, `CCCCCOc1ccc(-c2cc(-c3ccc(C(=O)N[C@H]4C[C@@H](O)[C@@H](O)NC(=O)[C@@H]5[C@@H](O)[C@@H](C)CN5C(=O)[C@H]([C@H](O)CC(N)=O)NC(=O)[C@H]([C@H](O)[C@@H](O)c5ccc(O)c(OS(=O)(=O)[O-])c5)NC(=O)[C@@H]5C[C@@H](O)CN5C(=O)[C@H]([C@@H](C)O)NC4=O)cc3)no2)cc1.[Na+]` [Comparative Example 13] (X1-[Orn(4R-OH,5R-OH)]T[Hyp][hTyr(3S-OH,4S-OH,3'-OSO3H)][Gln(3R-OH)][Pro(3S-OH,4S-Me)]; lactam 1-C): 0.2; `CCCCCOc1ccc(-c2cc(-c3ccc(C(=O)N[C@H]4C[C@@H](O)[C@@H](O)NC(=O)[C@@H]5[C@@H](O)[C@@H](C)CN5C(=O)[C@H]([C@H](O)CC(N)=O)NC(=O)[C@H]([C@H](O)[C@@H](O)c5ccc(O)c(OS(=O)(=O)[O-])c5)NC(=O)[C@@H]5C[C@@H](O)CN5C(=O)[C@H]([C@@H](C)O)NC4=O)cc3)no2)cc1.[Na+]` [Comparative Example 14] (X1-[Orn(4R-OH,5R-OH)]T[Hyp][hTyr(3S-OH,4S-OH,3'-OSO3H)][Gln(3R-OH)][Pro(3S-OH,4S-Me)]; lactam 1-C): 0.19.
Take `CCCCCOc1ccc(-c2cc(-c3ccc(C(=O)N[C@H]4C[C@@H](O)[C@@H](O)NC(=O)[C@@H]5[C@@H](O)[C@@H](C)CN5C(=O)[C@H]([C@H](O)CC(N)=O)NC(=O)[C@H]([C@H](O)[C@@H](O)c5ccc(O)c(OS(=O)(=O)[O-])c5)NC(=O)[C@@H]5C[C@@H](O)CN5C(=O)[C@H]([C@@H](C)O)NC4=O)cc3)no2)cc1.[Na+]` [Comparative Example 15] (X1-[Orn(4R-OH,5R-OH)]T[Hyp][hTyr(3S-OH,4S-OH,3'-OSO3H)][Gln(3R-OH)][Pro(3S-OH,4S-Me)]; lactam 1-C): the “ratio … (Dry/Wet)” value was 0.15.

The values are drawn from patent US10138275B2, “Crystalline powder of cyclic peptide compound, preparation method for same, and uses thereof” (SHANGHAI TECHWELL BIOPHARMACEUTICAL CO., LTD, priority 2014, dated 2018).
